Measurements from PMC3353973 (PLoS ONE, 2012).
Read-outs that look alike come from different tables or passages of the source. Numbered stars: 1 amine (or outer) side, 2 acyl side, 3 side chain; on linkers, the order of the positions; unused ones are H or OH. Bridge positions count the residues as written; N and C are the ends. I, II: the chains in the order shown. * marks the point of attachment. X1 = CC(C)CCC[C@@H](C)[C@H]1CC[C@H]2[C@@H]3CC=C4C[C@@H](OCCN(CCNC(=O)CCOCCOCCOCCOCCNC(=O)CCCN5C(=O)CC([*:1])C5=O)CCNC(=O)CCOCCOCCOCCOCCNC(=O)CCCN5C(=O)CC([*:2])C5=O)CC[C@]4(C)[C@H]3CC[C@]12C; Cam = NC(=O)C*

Tests used:
HIV-1 BaL = conditions: TZM-bl cells; for IC50: read-out: IC50, inhibition of HIV-1 infectivity, strain BaL, R5 strain BaL, moi 4, luciferase read-out after 48 h
[1] = system: Nipah virus (isolate UMMC1)
[2] = target: Nipah virus envelope glycoproteins mediated fusion (Nipah virus, UniProt Q9IH63); experiment: cell-based; format: cell-based
[3] = target: type 3 HPIV envelope glycoproteins mediated fusion (Human parainfluenza 3 virus, UniProt P06828); experiment: cell-based; format: cell-based, human parainfluenza virus type 3 (HPIV3)
Nipah virus = system: Nipah virus; design: species or system golden hamster (Mesocricetus auratus); conditions: hamster, in vivo

Sequence of type 3 HPIV envelope glycoproteins mediated fusion (P06828 19-109): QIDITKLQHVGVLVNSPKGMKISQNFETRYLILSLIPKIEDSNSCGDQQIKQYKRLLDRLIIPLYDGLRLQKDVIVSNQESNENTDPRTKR
Sequence of type 3 HPIV envelope glycoproteins mediated fusion (P06828 110-539): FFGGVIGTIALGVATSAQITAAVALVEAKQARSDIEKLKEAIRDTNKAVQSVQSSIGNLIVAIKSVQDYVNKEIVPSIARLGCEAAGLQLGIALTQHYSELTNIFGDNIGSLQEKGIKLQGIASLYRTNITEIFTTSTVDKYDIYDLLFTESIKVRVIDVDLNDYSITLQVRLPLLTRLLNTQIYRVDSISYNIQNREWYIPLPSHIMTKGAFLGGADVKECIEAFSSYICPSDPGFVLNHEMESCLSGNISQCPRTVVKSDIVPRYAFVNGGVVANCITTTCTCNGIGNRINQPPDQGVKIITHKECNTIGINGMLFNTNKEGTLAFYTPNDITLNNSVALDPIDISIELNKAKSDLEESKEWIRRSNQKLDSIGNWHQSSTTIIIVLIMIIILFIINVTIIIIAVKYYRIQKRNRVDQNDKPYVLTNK
Sequence of Nipah virus envelope glycoproteins mediated fusion (Q9IH63 110-546 limits assumed): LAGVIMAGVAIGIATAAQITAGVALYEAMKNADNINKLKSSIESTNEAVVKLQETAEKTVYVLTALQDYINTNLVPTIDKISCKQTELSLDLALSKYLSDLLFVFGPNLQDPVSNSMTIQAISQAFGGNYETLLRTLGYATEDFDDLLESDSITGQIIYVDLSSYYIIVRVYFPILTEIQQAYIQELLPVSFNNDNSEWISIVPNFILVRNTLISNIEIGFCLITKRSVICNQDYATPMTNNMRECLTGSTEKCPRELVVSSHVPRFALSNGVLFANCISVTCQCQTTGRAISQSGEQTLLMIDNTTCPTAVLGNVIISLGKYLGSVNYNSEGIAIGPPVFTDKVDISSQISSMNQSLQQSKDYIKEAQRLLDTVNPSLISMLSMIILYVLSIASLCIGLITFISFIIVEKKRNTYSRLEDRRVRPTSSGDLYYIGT
Sequence of Nipah virus envelope glycoproteins mediated fusion (Q9IH63 27-109 partner limits assumed): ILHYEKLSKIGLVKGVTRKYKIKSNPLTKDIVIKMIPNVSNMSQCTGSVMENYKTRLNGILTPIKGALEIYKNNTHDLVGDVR

Molecule: CC[C@H](C)[C@H](NC(=O)[C@H](CC(C)C)NC(=O)[C@H](CO)NC(=O)[C@H](Cc1c[nH]cn1)NC(=O)[C@@H](NC(=O)[C@H](CC(C)C)NC(=O)[C@H](CO)NC(=O)[C@@H](NC(=O)[C@H](Cc1ccc(O)cc1)NC(=O)[C@H](CC(N)=O)NC(=O)[C@H](CC(N)=O)NC(=O)[C@@H](NC(=O)[C@H](CCC(=O)O)NC(=O)[C@H](CCCNC(=N)N)NC(=O)[C@H](CC(=O)O)NC(=O)[C@H](Cc1c[nH]c2ccccc12)NC(=O)[C@H](CCC(=O)O)NC(=O)[C@H](CCSC)NC(=O)[C@H](Cc1c[nH]c2ccccc12)NC(C)=O)[C@@H](C)CC)[C@@H](C)O)[C@@H](C)CC)C(=O)N[C@@H](CCC(=O)O)C(=O)N[C@@H](CCC(=O)O)C(=O)N[C@@H](CO)C(=O)N[C@@H](CCC(N)=O)C(=O)N[C@@H](CC(N)=O)C(=O)N[C@@H](CCC(N)=O)C(=O)N[C@@H](CCC(N)=O)C(=O)N[C@@H](CCC(=O)O)C(=O)N[C@@H](CCCCN)C(=O)N[C@@H](CC(N)=O)C(=O)N[C@@H](CCC(=O)O)C(=O)N[C@@H](CCC(N)=O)C(=O)N[C@@H](CCC(=O)O)C(=O)N[C@@H](CC(C)C)C(=O)N[C@@H](CC(C)C)C(=O)NCC(=O)N[C@@H](CO)C(=O)NCC(=O)N[C@@H](CSCC(N)=O)C(N)=O [HIV-P2]
- IC50 (HIV-1 BaL): 60.1 ± 84 nM

Molecule: CC[C@H](C)[C@H](NC(=O)[C@H](CC(C)C)NC(=O)[C@H](CO)NC(=O)[C@H](Cc1c[nH]cn1)NC(=O)[C@@H](NC(=O)[C@H](CC(C)C)NC(=O)[C@H](CO)NC(=O)[C@@H](NC(=O)[C@H](Cc1ccc(O)cc1)NC(=O)[C@H](CC(N)=O)NC(=O)[C@H](CC(N)=O)NC(=O)[C@@H](NC(=O)[C@H](CCC(=O)O)NC(=O)[C@H](CCCNC(=N)N)NC(=O)[C@H](CC(=O)O)NC(=O)[C@H](Cc1c[nH]c2ccccc12)NC(=O)[C@H](CCC(=O)O)NC(=O)[C@H](CCSC)NC(=O)[C@H](Cc1c[nH]c2ccccc12)NC(C)=O)[C@@H](C)CC)[C@@H](C)O)[C@@H](C)CC)C(=O)N[C@@H](CCC(=O)O)C(=O)N[C@@H](CCC(=O)O)C(=O)N[C@@H](CO)C(=O)N[C@@H](CCC(N)=O)C(=O)N[C@@H](CC(N)=O)C(=O)N[C@@H](CCC(N)=O)C(=O)N[C@@H](CCC(N)=O)C(=O)N[C@@H](CCC(=O)O)C(=O)N[C@@H](CCCCN)C(=O)N[C@@H](CC(N)=O)C(=O)N[C@@H](CCC(=O)O)C(=O)N[C@@H](CCC(N)=O)C(=O)N[C@@H](CCC(=O)O)C(=O)N[C@@H](CC(C)C)C(=O)N[C@@H](CC(C)C)C(=O)NCC(=O)N[C@@H](CO)C(=O)NCC(=O)N[C@@H](CSC1CC(=O)N(CCCC(=O)NCCOCCOCCOCCOCCC(=O)NCCN(CCNC(=O)CCOCCOCCOCCOCCNC(=O)CCCN2C(=O)CC(SC[C@H](NC(=O)CNC(=O)[C@H](CO)NC(=O)CNC(=O)[C@H](CC(C)C)NC(=O)[C@H](CC(C)C)NC(=O)[C@H](CCC(=O)O)NC(=O)[C@H](CCC(N)=O)NC(=O)[C@H](CCC(=O)O)NC(=O)[C@H](CC(N)=O)NC(=O)[C@H](CCCCN)NC(=O)[C@H](CCC(=O)O)NC(=O)[C@H](CCC(N)=O)NC(=O)[C@H](CCC(N)=O)NC(=O)[C@H](CC(N)=O)NC(=O)[C@H](CCC(N)=O)NC(=O)[C@H](CO)NC(=O)[C@H](CCC(=O)O)NC(=O)[C@H](CCC(=O)O)NC(=O)[C@@H](NC(=O)[C@H](CC(C)C)NC(=O)[C@H](CO)NC(=O)[C@H](Cc3c[nH]cn3)NC(=O)[C@@H](NC(=O)[C@H](CC(C)C)NC(=O)[C@H](CO)NC(=O)[C@@H](NC(=O)[C@H](Cc3ccc(O)cc3)NC(=O)[C@H](CC(N)=O)NC(=O)[C@H](CC(N)=O)NC(=O)[C@@H](NC(=O)[C@H](CCC(=O)O)NC(=O)[C@H](CCCNC(=N)N)NC(=O)[C@H](CC(=O)O)NC(=O)[C@H](Cc3c[nH]c4ccccc34)NC(=O)[C@H](CCC(=O)O)NC(=O)[C@H](CCSC)NC(=O)[C@H](Cc3c[nH]c4ccccc34)NC(C)=O)[C@@H](C)CC)[C@@H](C)O)[C@@H](C)CC)[C@@H](C)CC)C(N)=O)C2=O)CCO[C@H]2CC[C@@]3(C)C(=CC[C@H]4[C@@H]5CC[C@H]([C@H](C)CCCC(C)C)[C@@]5(C)CC[C@@H]43)C2)C1=O)C(N)=O (stereo partly shown) [HIV-P4]
- Potency increase versus the untagged HR-derived peptide (HIV-P2), strain BaL (HIV-1 BaL; ratio of IC50): 6,000 fold
- IC50 (HIV-1 BaL): 0.01 ± 0.01 nM

Molecule: Ac-VALDPIDISIVLNKAKSDLEESKEWIRRSNGKLDSI-GSGSG-C(PEG4-Chol)-NH2 [HPIV-P3]
- IC50 ([1]; read-out: IC50, NiV live virus plaque reduction): 8.02 ± 0.66 nM
- IC50 ([2]; read-out: IC50, inhibition of NiV envelope glycoprotein mediated cell-to-cell fusion): 1 to 10 nM
- Fold more potent than the untagged inhibitor (HPIV-P2), HPIV3 fusion [3]: ≈ 10 fold
- IC50 ([3]; read-out: IC50, inhibition of HPIV3 envelope glycoprotein mediated cell-to-cell fusion): 10 to 100 nM

Molecule: Ac-VALDPIDISIVLNKAKSDLEESKEWIRRSNGKLDSIGSGSGC(Cam)-NH2 [HPIV-P2]
- IC50 [2]: > 100 nM
- IC50 [3]: > 100 nM

Molecule: I: Ac-VALDPIDISIVLNKAKSDLEESKEWIRRSNGKLDSIGSGSGC-NH2 / II: Ac-VALDPIDISIVLNKAKSDLEESKEWIRRSNGKLDSIGSGSGC-NH2 (linker I:42-II:42 via X1) [HPIV-P4]
- Onset of illness / lifespan of NiV-infected hamsters (Nipah virus): onset of the illness was considerably delayed in the other four, leading to a significantly extended lifespan
- Survival of NiV-infected hamsters (Nipah virus): survival of one of the five animals
- IC50 ([1]; 1 h): 4.36 ± 1.3 nM
- Fold more potent than the cholesterol-tagged monomer (HPIV-P3), NiV fusion [2]: ≈ 10 fold
- IC50 [2]: < 1 nM
- IC50 [3]: < 10 nM
- Relative fusion inhibitory potency in words, HPIV3 fusion [3]: considerably more potent than the cholesterol-tagged monomer
